Test results published in ChEMBL document CHEMBL6134788, “Development of naphthalimide hydrazide derivatives as potent antibacterial agents against carbapenem-resistant A. baumannii” (RSC Med Chem, 2024).
Values after ≈ are worked out from the molar mass of the structure shown. Positions of bridges follow the written chain, without caps; N, C: chain ends. Non-standard residues stand in square brackets, D forms with d. Residues, ends and D or L forms follow the SMILES beside them. *: point of attachment. X1 = CC[C@H](C)CCCCC(=O)*; Dab = NCC[C@H](N)C(=O)O

Assays:
Format in all cases: functional
Conditions in all cases: time 16-18 hrs, read-out: MIC100
Escherichia coli = experiment: Antibacterial activity against Escherichia coli ATCC 25922 assessed as inhibition of bacterial growth incubated for 16 to 18 hrs by CLSI protocol based method
Staphylococcus aureus = experiment: Antibacterial activity against Staphylococcus aureus ATCC 29213 assessed as inhibition of bacterial growth incubated for 16 to 18 hrs by CLSI protocol based method
Klebsiella pneumoniae = experiment: Antibacterial activity against Klebsiella pneumoniae BAA 1705 assessed as inhibition of bacterial growth incubated for 16 to 18 hrs by CLSI protocol based method
Acinetobacter baumannii [1] = experiment: Antibacterial activity against carbapenem-resistant Acinetobacter baumannii BAA 1605 assessed as inhibition of bacterial growth incubated for 16 to 18 hrs by CLSI protocol based method
Pseudomonas aeruginosa = experiment: Antibacterial activity against Pseudomonas aeruginosa ATCC 27853 assessed as inhibition of bacterial growth incubated for 16 to 18 hrs by CLSI protocol based method
Acinetobacter baumannii [2] = experiment: Antibacterial activity against multi-drug resistant Acinetobacter baumannii H72721 assessed as inhibition of bacterial growth incubated for 16 to 18 hrs by CLSI protocol based method
Acinetobacter baumannii [3] = experiment: Antibacterial activity against multi-drug resistant Acinetobacter baumannii clinical isolate 1 assessed as inhibition of bacterial growth incubated for 16 to 18 hrs by CLSI protocol based method
Acinetobacter baumannii [4] = experiment: Antibacterial activity against multi-drug resistant Acinetobacter baumannii clinical isolate 2 assessed as inhibition of bacterial growth incubated for 16 to 18 hrs by CLSI protocol based method
Acinetobacter baumannii [5] = experiment: Antibacterial activity against multi-drug resistant Acinetobacter baumannii clinical isolate 3 assessed as inhibition of bacterial growth incubated for 16 to 18 hrs by CLSI protocol based method
Acinetobacter baumannii [6] = experiment: Antibacterial activity against multi-drug resistant Acinetobacter baumannii clinical isolate 4 assessed as inhibition of bacterial growth incubated for 16 to 18 hrs by CLSI protocol based method
Acinetobacter baumannii [7] = experiment: Antibacterial activity against multi-drug resistant Acinetobacter baumannii clinical isolate 5 assessed as inhibition of bacterial growth incubated for 16 to 18 hrs by CLSI protocol based method
Acinetobacter baumannii [8] = experiment: Antibacterial activity against multi-drug resistant Acinetobacter baumannii clinical isolate 6 assessed as inhibition of bacterial growth incubated for 16 to 18 hrs by CLSI protocol based method
Acinetobacter baumannii [9] = experiment: Antibacterial activity against multi-drug resistant Acinetobacter baumannii clinical isolate 7 assessed as inhibition of bacterial growth incubated for 16 to 18 hrs by CLSI protocol based method
Acinetobacter baumannii [10] = experiment: Antibacterial activity against multi-drug resistant Acinetobacter baumannii clinical isolate 8 assessed as inhibition of bacterial growth incubated for 16 to 18 hrs by CLSI protocol based method
Acinetobacter baumannii [11] = experiment: Antibacterial activity against multi-drug resistant Acinetobacter baumannii clinical isolate 9 assessed as inhibition of bacterial growth incubated for 16 to 18 hrs by CLSI protocol based method
Acinetobacter baumannii [12] = experiment: Antibacterial activity against multi-drug resistant Acinetobacter baumannii clinical isolate 10 assessed as inhibition of bacterial growth incubated for 16 to 18 hrs by CLSI protocol based method
Acinetobacter baumannii [13] = experiment: Antibacterial activity against multi-drug resistant Acinetobacter baumannii clinical isolate 11 assessed as inhibition of bacterial growth incubated for 16 to 18 hrs by CLSI protocol based method
Acinetobacter baumannii [14] = experiment: Antibacterial activity against multi-drug resistant Acinetobacter baumannii clinical isolate 12 assessed as inhibition of bacterial growth incubated for 16 to 18 hrs by CLSI protocol based method
Acinetobacter baumannii [15] = experiment: Antibacterial activity against multi-drug resistant Acinetobacter baumannii NR-17777 assessed as inhibition of bacterial growth incubated for 16 to 18 hrs by CLSI protocol based method
Acinetobacter baumannii [16] = experiment: Antibacterial activity against multi-drug resistant Acinetobacter baumannii 5-032 assessed as inhibition of bacterial growth incubated for 16 to 18 hrs by CLSI protocol based method
Acinetobacter baumannii [17] = experiment: Antibacterial activity against multi-drug resistant Acinetobacter baumannii 5-109 assessed as inhibition of bacterial growth incubated for 16 to 18 hrs by CLSI protocol based method
Acinetobacter baumannii [18] = experiment: Antibacterial activity against multi-drug resistant Acinetobacter baumannii 5-143 assessed as inhibition of bacterial growth incubated for 16 to 18 hrs by CLSI protocol based method
Acinetobacter baumannii [19] = experiment: Antibacterial activity against multi-drug resistant Acinetobacter baumannii 5-189 assessed as inhibition of bacterial growth incubated for 16 to 18 hrs by CLSI protocol based method
Acinetobacter baumannii [20] = experiment: Antibacterial activity against multi-drug resistant Acinetobacter baumannii BC-5 assessed as inhibition of bacterial growth incubated for 16 to 18 hrs by CLSI protocol based method
Acinetobacter baumannii [21] = experiment: Antibacterial activity against multi-drug resistant Acinetobacter baumannii Naval-17 assessed as inhibition of bacterial growth incubated for 16 to 18 hrs by CLSI protocol based method
Acinetobacter baumannii [22] = experiment: Antibacterial activity against multi-drug resistant Acinetobacter baumannii Naval-18 assessed as inhibition of bacterial growth incubated for 16 to 18 hrs by CLSI protocol based method
Acinetobacter baumannii [23] = experiment: Antibacterial activity against multi-drug resistant Acinetobacter baumannii Naval-81 assessed as inhibition of bacterial growth incubated for 16 to 18 hrs by CLSI protocol based method
Acinetobacter baumannii [24] = experiment: Antibacterial activity against multi-drug resistant Acinetobacter baumannii WL-136 assessed as inhibition of bacterial growth incubated for 16 to 18 hrs by CLSI protocol based method
Acinetobacter baumannii [25] = experiment: Antibacterial activity against multi-drug resistant Acinetobacter baumannii WL-487 assessed as inhibition of bacterial growth incubated for 16 to 18 hrs by CLSI protocol based method
Acinetobacter baumannii [26] = experiment: Antibacterial activity against Acinetobacter baumannii ATCC 17978 assessed as inhibition of bacterial growth incubated for 16 to 18 hrs by CLSI protocol based method

O=C(CCCCCN1C(=O)c2cccc3cccc(c23)C1=O)NNc1ccccc1
MIC (Escherichia coli): > 64 µg/mL | MIC (Staphylococcus aureus): > 64 µg/mL | MIC (Klebsiella pneumoniae): > 64 µg/mL | MIC (Acinetobacter baumannii [1]): 8 µg/mL (≈ 19.9 µM) | MIC (Pseudomonas aeruginosa): > 64 µg/mL

COc1ccc(NNC(=O)CCN2C(=O)c3cccc4cccc(c34)C2=O)cc1
MIC (Escherichia coli): > 64 µg/mL | MIC (Staphylococcus aureus): > 64 µg/mL | MIC (Klebsiella pneumoniae): > 64 µg/mL | MIC (Acinetobacter baumannii [1]): 4 µg/mL (≈ 10.3 µM) | MIC (Pseudomonas aeruginosa): > 64 µg/mL

O=C(CCN1C(=O)c2cccc3cccc(c23)C1=O)NNc1ccccc1
MIC (Escherichia coli): > 64 µg/mL | MIC (Staphylococcus aureus): > 64 µg/mL | MIC (Klebsiella pneumoniae): > 64 µg/mL | MIC (Acinetobacter baumannii [1]): 8 µg/mL (≈ 22.3 µM) | MIC (Pseudomonas aeruginosa): > 64 µg/mL

O=C(CCN1C(=O)c2cccc3cccc(c23)C1=O)NNc1cccc(F)c1
MIC (Escherichia coli): > 64 µg/mL | MIC (Staphylococcus aureus): > 64 µg/mL | MIC (Klebsiella pneumoniae): > 64 µg/mL | MIC (Acinetobacter baumannii [1]): 1 µg/mL (≈ 2.65 µM) | MIC (Pseudomonas aeruginosa): > 64 µg/mL

Cc1ccc(NNC(=O)CCN2C(=O)c3cccc4cccc(c34)C2=O)c(C)c1
MIC (Escherichia coli): > 64 µg/mL | MIC (Staphylococcus aureus): > 64 µg/mL | MIC (Klebsiella pneumoniae): > 64 µg/mL | MIC (Acinetobacter baumannii [1]): > 64 µg/mL | MIC (Pseudomonas aeruginosa): > 64 µg/mL

O=C(CCN1C(=O)c2cccc3cccc(c23)C1=O)NNc1ccc([N+](=O)[O-])cc1
MIC (Escherichia coli): > 64 µg/mL | MIC (Staphylococcus aureus): > 64 µg/mL | MIC (Klebsiella pneumoniae): > 64 µg/mL | MIC (Acinetobacter baumannii [1]): 4 µg/mL (≈ 9.89 µM) | MIC (Pseudomonas aeruginosa): > 64 µg/mL

CC(C)CCCCC(=O)N[C@@H](CCN)C(=O)N[C@H](C(=O)N[C@@H](CCN)C(=O)N[C@H]1CCNC(=O)[C@H]([C@@H](C)O)NC(=O)[C@H](CCN)NC(=O)[C@H](CCN)NC(=O)[C@H](CC(C)C)NC(=O)[C@@H](Cc2ccccc2)NC(=O)[C@H](CCN)NC1=O)[C@@H](C)O.CC[C@H](C)CCCCC(=O)N[C@@H](CCN)C(=O)N[C@H](C(=O)N[C@@H](CCN)C(=O)N[C@H]1CCNC(=O)[C@H]([C@@H](C)O)NC(=O)[C@H](CCN)NC(=O)[C@H](CCN)NC(=O)[C@H](CC(C)C)NC(=O)[C@@H](Cc2ccccc2)NC(=O)[C@H](CCN)NC1=O)[C@@H](C)O (X1-[Dab]T[Dab][Dab][Dab][dF]L[Dab][Dab]T; lactam 4-C)
MIC (Acinetobacter baumannii [1]): 0.25 µg/mL | MIC (Acinetobacter baumannii [2]): 0.25 µg/mL | MIC (Acinetobacter baumannii [3]): 0.25 µg/mL | MIC (Acinetobacter baumannii [4]): 0.25 µg/mL | MIC (Acinetobacter baumannii [5]): 0.25 µg/mL | MIC (Acinetobacter baumannii [6]): 0.25 µg/mL | MIC (Acinetobacter baumannii [7]): 0.25 µg/mL | MIC (Acinetobacter baumannii [8]): 0.25 µg/mL | MIC (Acinetobacter baumannii [9]): 0.5 µg/mL | MIC (Acinetobacter baumannii [10]): 0.5 µg/mL | MIC (Acinetobacter baumannii [11]): 0.5 µg/mL | MIC (Acinetobacter baumannii [12]): 0.25 µg/mL | MIC (Acinetobacter baumannii [13]): 0.25 µg/mL | MIC (Acinetobacter baumannii [14]): 0.25 µg/mL | MIC (Acinetobacter baumannii [15]): 0.25 µg/mL | MIC (Acinetobacter baumannii [16]): 0.125 µg/mL | MIC (Acinetobacter baumannii [17]): 0.25 µg/mL | MIC (Acinetobacter baumannii [18]): 0.25 µg/mL | MIC (Acinetobacter baumannii [19]): 0.25 µg/mL | MIC (Acinetobacter baumannii [20]): 0.25 µg/mL | MIC (Acinetobacter baumannii [21]): 0.25 µg/mL | MIC (Acinetobacter baumannii [22]): 0.25 µg/mL | MIC (Acinetobacter baumannii [23]): 0.125 µg/mL | MIC (Acinetobacter baumannii [24]): 0.25 µg/mL | MIC (Acinetobacter baumannii [25]): 0.5 µg/mL | MIC (Acinetobacter baumannii [26]): 0.25 µg/mL

NC[C@H]1O[C@H](O[C@H]2[C@H](O)[C@@H](O[C@H]3O[C@H](CO)[C@@H](O)[C@H](N)[C@H]3O)[C@H](N)C[C@@H]2N)[C@H](N)C[C@@H]1O [TOBRAMYCIN]
MIC (Acinetobacter baumannii [1]): 4 µg/mL (≈ 8.56 µM)

O=C(NNc1ccc(Cl)cc1)[C@@H](Cc1ccccc1)N1C(=O)c2cccc3cccc(c23)C1=O
MIC (Escherichia coli): > 64 µg/mL | MIC (Staphylococcus aureus): > 64 µg/mL | MIC (Klebsiella pneumoniae): > 64 µg/mL | MIC (Acinetobacter baumannii [1]): 4 µg/mL (≈ 8.51 µM) | MIC (Pseudomonas aeruginosa): > 64 µg/mL

N#Cc1ccc(NNC(=O)[C@@H](Cc2ccccc2)N2C(=O)c3cccc4cccc(c34)C2=O)cc1
MIC (Escherichia coli): > 64 µg/mL | MIC (Staphylococcus aureus): > 64 µg/mL | MIC (Klebsiella pneumoniae): > 64 µg/mL | MIC (Acinetobacter baumannii [1]): 16 µg/mL (≈ 34.7 µM) | MIC (Pseudomonas aeruginosa): > 64 µg/mL

CO[C@H]1/C=C/O[C@@]2(C)Oc3c(C)c(O)c4c(O)c(c(/C=N/N5CCN(C)CC5)c(O)c4c3C2=O)NC(=O)/C(C)=C\C=C\[C@H](C)[C@H](O)[C@@H](C)[C@@H](O)[C@@H](C)[C@H](OC(C)=O)[C@@H]1C [RIFAMPIN]
MIC (Acinetobacter baumannii [1]): 4 µg/mL (≈ 4.86 µM)

O=C(CCN1C(=O)c2cccc3cccc(c23)C1=O)NNc1cc(F)cc(F)c1
MIC (Escherichia coli): > 64 µg/mL | MIC (Staphylococcus aureus): > 64 µg/mL | MIC (Klebsiella pneumoniae): > 64 µg/mL | MIC (Acinetobacter baumannii [1]): > 64 µg/mL | MIC (Pseudomonas aeruginosa): > 64 µg/mL

O=C(CCN1C(=O)c2cccc3cccc(c23)C1=O)NNc1ccc(Cl)cc1Cl
MIC (Escherichia coli): > 64 µg/mL | MIC (Staphylococcus aureus): > 64 µg/mL | MIC (Klebsiella pneumoniae): > 64 µg/mL | MIC (Acinetobacter baumannii [1]): > 64 µg/mL | MIC (Pseudomonas aeruginosa): > 64 µg/mL

Cc1ccc(NNC(=O)CCN2C(=O)c3cccc4cccc(c34)C2=O)cc1
MIC (Escherichia coli): > 64 µg/mL | MIC (Staphylococcus aureus): > 64 µg/mL | MIC (Klebsiella pneumoniae): > 64 µg/mL | MIC (Acinetobacter baumannii [1]): 4 µg/mL (≈ 10.7 µM) | MIC (Pseudomonas aeruginosa): > 64 µg/mL
